The text below walks through data of the Deep4Chem optical property database.

The nature of this data set: solvent given as SMILES.

In the case of `CC(C)[Si](C#Cc1c2ccccc2c(C#C[Si](C(C)C)(C(C)C)C(C)C)c2nc3c4ccccc4c(=O)c4ccccc4c3nc12)(C(C)C)C(C)C`, the emission maximum (in ClCCl) turned out to be 544 nm.

On to `N#Cc1cccc(N)c1`, for which the emission maximum is given as 343 nm (in C1CCCCC1); 369.45 nm (in CC#N); 339.87 nm (in CCCCCC); 384 nm (in CCO); 392 nm (in O); 380 nm (in OCC(F)(F)F).

As for `CCCCCCCCCc1c2ccccc2cc2c1oc1c3oc4c5oc6cc7ccccc7cc6c5c5ccccc5c4c3c3ccccc3c21`, the emission maximum (in C1CCOC1) is reported as 428 nm.

Consider `O=C(O)CCCCCn1c2ccc(Br)cc2c(=O)c2cc(S(=O)(=O)O)ccc21`, for which the emission maximum (in O) is 435 nm.

Turning to `N#Cc1ccc(-c2ccc3c(c2)c2cc(-c4ccc(C#N)cc4)ccc2c2c3nc(-c3ccc(-c4ccc(N(c5ccccc5)c5ccccc5)cc4)cc3)n2-c2ccccc2)cc1`, the emission maximum (in C1CCOC1) stood at 468.68 nm, the emission maximum (in CC#N) is on record as 519.93 nm, the emission maximum (in CCCCCC) was determined as 421.18 nm and the emission maximum (in CCOCC) was 449.2 nm.

Take `CC(=O)c1cc(=O)n(C)c2cc(-c3ccc(N(C)C)cc3)sc12`: the emission maximum is, setting by setting: (in CC#N) 504 nm; (in ClCCl) 610 nm.

With `COc1cc2c(cc1-c1ccc(N(c3ccccc3)c3ccccc3)cc1)Cc1c3c(c4c(c1-2)-c1cc(OC)c(-c2ccc(N(c5ccccc5)c5ccccc5)cc2)cc1C4)C(=O)N(CCC(C)C)C3=O`, where the note is “in C1CCOC1”, the emission maximum was found to be 563 nm.

Consider `COc1cc2sc3cc(OC)c(F)cc3c(=O)c2cc1F`, for which the emission maximum (in CS(C)=O) was 416 nm.

Turning to `F[B-]1(F)n2c(c3c(c2-c2ccccc2)C2C=CC3CC2)C(c2ccccc2)=C2C3=C(C(c4ccccc4)=[N+]21)C1C=CC3CC1` (stereo unspecified), under “in ClCCl”, the emission maximum came out at 588 nm.

Regarding `COc1cccc(-c2[nH]c(=O)n3c2-c2ccccc2C3=O)c1O`, the emission maximum runs as follows: (in CC#N) 478 nm; (in CO) 496 nm; (in ClCCl) 471 nm.

Consider `Cc1cccc(NC(=O)c2ccc(N(C)C)cc2)c1`, for which the emission maximum runs as follows: (in C1CCCCC1) 452 nm; (in C1CCOC1) 518 nm; (in CC#N) 502 nm; (in CCOCC) 498 nm.

For the setting “in C1CCOC1”, `O=S1(=O)C(c2cccs2)=C(c2cccs2)c2ccccc21` had an emission maximum of 432 nm.

On to `CC1=CC(/C=C/c2ccc(OCCCN=[N+]=[N-])cc2)=[N+]2C1=C(c1ccccc1)c1c(C)cc(C)n1[B-]2(F)F`, for which the emission maximum (in CO) worked out at 578 nm.

Where the note is “in c1cc(-c2cccc(-n3c4ccccc4c4ccccc43)c2)cc(-n2c3ccccc3c3ccccc32)c1”, `Cc1cc(-c2nc(-c3ccccc3)nc(-c3ccccc3)n2)ccc1-c1ccc2c(c1)C1(c3ccccc3-c3ccccc31)c1ccccc1N2c1ccccc1` yielded an emission maximum of 450 nm.

As for `CCc1c(C)[nH]c(C2=[N+]3C(=C(C)c4c(C)c(CC)c(C)n4[B-]3(F)F)c3ccccc32)c1C`, the emission maximum (in C1CCOC1) turned out to be 656 nm; the emission maximum (in CC#N) is on record as 652 nm; the emission maximum (in CCCCCC) was 636 nm; the emission maximum (in CO) was found to be 650 nm; the emission maximum (in Cc1ccccc1) turned out to be 646 nm; the emission maximum (in ClCCl) came to 645 nm.

As for `COC(=O)c1c(-c2cc3ccccc3oc2=O)nn(-c2cccc(F)c2)c1C(=O)OC`, where the note is “in ClCCl”, the emission maximum was determined as 402 nm.

Turning to `CC(C)(C)c1ccc2c(c1)c1cc(C(C)(C)C)ccc1n2-c1ccc(N(c2ccc(-c3ccc4c(c3)C(C)(C)c3cc(-c5ccc(N(c6ccc(-n7c8ccc(C(C)(C)C)cc8c8cc(C(C)(C)C)ccc87)cc6)c6ccc(-n7c8ccc(C(C)(C)C)cc8c8cc(C(C)(C)C)ccc87)cc6)cc5)ccc3-4)cc2)c2ccc(-n3c4ccc(C(C)(C)C)cc4c4cc(C(C)(C)C)ccc43)cc2)cc1`, the emission maximum (in ClCCl) is listed as 443 nm.

Consider `COC(=O)c1nc2c(N(C)C)nc(N(C)C)nc2n1Cc1ccccc1`, for which the emission maximum is, setting by setting: (in C1COCCO1) 402 nm; (in CC#N) 415 nm; (in CO) 432 nm; (in ClCCl) 409 nm.

Turning to `c1ccc(-c2cnc3nn4ccccc4c3n2)cc1`, the emission maximum (in C1CCOC1) came to 449 nm.
